This experiment addresses T1, human PAD4 (Homo sapiens, UniProt Q9UM07).
T1 construct: human PAD4 (NM_012387), A2-P663, was PCR amplified; His-SUMO (N, cleaved yes); made in house; host or cells: E. coli BL21(DE3)
Put plainly: In vitro PAD4 BAEE biochemical assay. The note with it: BAEE substrate 3 mM, 5 nM PAD4, 2 mM calcium chloride; geometric mean of multiple experiments. The essentials:
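Recombinant PAD4 (5 nM final) with 2 mM CaCl2 was preincubated with compound for 30 min at 25 °C in MOPS pH 7.6 buffer with DTT, then reacted with 3 mM BAEE for 2 h at 25 °C. Released ammonia was detected fluorimetrically with o-phthalaldehyde/DTT; IC50 from four-parameter fit, geometric mean of experiments.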
T1 sequence (Q9UM07 2-663): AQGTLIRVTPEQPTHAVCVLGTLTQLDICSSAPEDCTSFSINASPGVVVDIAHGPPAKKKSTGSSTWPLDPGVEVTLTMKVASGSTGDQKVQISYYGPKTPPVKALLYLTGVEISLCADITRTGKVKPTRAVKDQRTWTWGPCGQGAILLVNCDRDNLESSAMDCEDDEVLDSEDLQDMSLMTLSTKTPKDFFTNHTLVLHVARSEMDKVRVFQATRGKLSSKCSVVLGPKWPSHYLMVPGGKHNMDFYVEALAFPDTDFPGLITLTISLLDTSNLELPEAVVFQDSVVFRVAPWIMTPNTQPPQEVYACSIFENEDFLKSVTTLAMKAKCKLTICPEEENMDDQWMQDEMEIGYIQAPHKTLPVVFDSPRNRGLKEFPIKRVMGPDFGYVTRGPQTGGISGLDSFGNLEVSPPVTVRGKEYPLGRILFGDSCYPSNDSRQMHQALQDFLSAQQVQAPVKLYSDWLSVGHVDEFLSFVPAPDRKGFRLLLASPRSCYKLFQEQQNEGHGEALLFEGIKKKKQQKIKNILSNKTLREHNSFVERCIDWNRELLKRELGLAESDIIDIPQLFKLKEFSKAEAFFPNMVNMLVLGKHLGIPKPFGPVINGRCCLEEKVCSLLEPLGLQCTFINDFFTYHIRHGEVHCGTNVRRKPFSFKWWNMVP
For the compound `COc1cc(C(=O)N2C[C@H](N)[C@@H]3CC[C@H]2C3)cc2nc(-c3cc4ccc5nc4n3CCCCCCC3(CC3)C(=O)N[C@@H]5C)n(C)c12` [Example 445, (11~{R})-17-[5-[(1~{S},4~{R},5~{R})-4-amino-2-azabicyclo[3.2.1]octane-2-carbonyl]-7-methoxy-1-methyl-benzimidazol-2-yl]-11-methyl-spiro[1,10,19-triazatricyclo[10.5.2.0^{15,18}]nonadeca-12(19),13,15(18),16-tetraene-8,1′-cyclopropane]-9-one], the IC50 came to 72 nM.
The value for `COc1cc(C(=O)N2C[C@H](N)[C@@H]3CC[C@H]2C3)cc2nc(-c3cc4ccc5nc4n3CC(F)(F)CCCc3cncc(F)c3C(=O)N[C@@H]5C)n(C)c12` [Example 446, (2~{R})-17-[5-[(1~{S},4~{R},5~{R})-4-amino-2-azabicyclo[3.2.1]octane-2-carbonyl]-7-methoxy-1-methyl-benzimidazol-2-yl]-6,14,14-trifluoro-2-methyl-3,8,16,22-tetrazatetracyclo[14.5.2.0^{5,10}.0^{19,23}] tricosa-1(22),5(10),6,8,17,19(23),20-heptaen-4-one] was 38 nM.
Turning to `COc1cc(C(=O)N2C[C@H](N)[C@@H]3CC[C@H]2C3)cc2nc(-c3cc4ccc5nc4n3CCCCC[C@@H]3C[C@@]3(F)C(=O)N[C@@H]5C)n(C)c12` [Example 447, (2~{R},5~{S},7~{R})-14-[5-[(1~{S},4~{R},5~{R})-4-amino-2-azabicyclo[3.2.1]octane-2-carbonyl]-7-methoxy-1-methyl-benzimidazol-2-yl]-5-fluoro-2-methyl-3,13,19-triazatetracyclo[11.5.2.0^{5,7}.0^{16,20}] icosa-1(19),14,16(20),17-tetraen-4-one], the 50% inhibitory concentration (IC50) came to 37 nM.
Under `COc1cc(C(=O)N2C[C@H](N)[C@@H]3CC[C@H]2C3)cc2nc(-c3cc4ccc5nc4n3CC(F)(F)CCC[C@]3(F)C[C@H]3C(=O)N[C@@H]5C)n(C)c12` [Example 448, (2~{R},5~{S},7~{S})-14-[5-[(1~{S},4~{R},5~{R})-4-amino-2-azabicyclo[3.2.1]octane-2-carbonyl]-7-methoxy-1-methyl-benzimidazol-2-yl]-7,11,11-trifluoro-2-methyl-3,13,19-triazatetracyclo[11.5.2.0^{5,7}.0^{16,20}] icosa-1(19),14,16(20),17-tetraen-4-one] stands 26 nM; under `C[C@H]1NC(=O)[C@@H]2C[C@@]2(F)CCCC(F)(F)Cn2c(-c3nc4cc(C(=O)N5C[C@H](N)[C@@H]6CC[C@H]5C6)cc(F)c4n3C3CC3)cc3ccc1nc32` [Example 449, (2~{R},5~{S},7~{S})-14-[5-[(1~{S},4~{R},5~{R})-4-amino-2-azabicyclo[3.2.1]octane-2-carbonyl]-1-cyclopropyl-7-fluoro-benzimidazol-2-yl]-7,11,11-trifluoro-2-methyl-3,13,19-triazatetracyclo[11.5.2.0^{5,7}.0^{16,20}] icosa-1(19),14,16(20),17-tetraen-4-one], 22 nM; under `C[C@H]1NC(=O)[C@@H]2C[C@@]2(F)CCCCCn2c(-c3nc4cc(C(=O)N5C[C@H](N)[C@@H]6CC[C@H]5C6)cc(F)c4n3C3CC3)cc3ccc1nc32` [Example 450, (2~{R},5~{S},7~{S})-14-[5-[(1~{S},4~{R},5~{R})-4-amino-2-azabicyclo[3.2.1]octane-2-carbonyl]-1-cyclopropyl-7-fluoro-benzimidazol-2-yl]-7-fluoro-2-methyl-3,13,19-triazatetracyclo[11.5.2.0^{5,7}.0^{16,20}] icosa-1(19),14,16(20),17-tetraen-4-one], 21 nM.
The value for `COc1cc(C(=O)N2C[C@H](N)[C@@H]3CC[C@H]2C3)cc2nc(-c3cc4ccc5nc4n3CCCCC[C@]3(F)C[C@H]3C(=O)N[C@@H]5C)n(C)c12` [Example 451, (2~{R},5~{S},7~{S})-14-[5-[(1~{S},4~{R},5~{R})-4-amino-2-azabicyclo[3.2.1]octane-2-carbonyl]-7-methoxy-1-methyl-benzimidazol-2-yl]-7-fluoro-2-methyl-3,13,19-triazatetracyclo[11.5.2.0^{5,7}.0^{16,20}] icosa-1(19),14,16(20),17-tetraen-4-one] was 19 nM.
Take `C[C@H]1NC(=O)c2ccc(Cl)nc2CCCCCn2c(-c3nc4cc(C(=O)N5C[C@H](N)[C@@H]6CC[C@H]5C6)cc(F)c4n3[C@@H]3C[C@@H]3F)cc3ccc1nc32` [Example 452, (2~{R})-17-[(1~{R})-5-[(1~{S},4~{R},5~{R})-4-amino-2-azabicyclo[3.2.1]octane-2-carbonyl]-7-fluoro-1-[(2~{S})-2-fluorocyclopropyl]benzimidazol-2-yl]-8-chloro-2-methyl-3,9,16,22-tetrazatetracyclo[14.5.2.0^{5,10).0^{19,23}] tricosa-1(22),5(10),6,8,17,19(23),20-heptaen-4-one]: the half-inhibitory concentration (IC50) amounted to 37 nM.
The value for `C[C@H]1NC(=O)[C@@H]2C[C@H]2CCCC(F)(F)Cn2c(-c3nc4cc(C(=O)N5C[C@H](N)[C@@H]6CC[C@H]5C6)cc(F)c4n3[C@@H]3C[C@H]3C(F)F)cc3ccc1nc32` [Example 454, (2~{R},5~{R},7~{R})-14-[5-[(1~{S),4~{R},5~{R})-4-amino-2-azabicycło[3.2.1]octane-2-carbonyl]-1-[(1~{R},2~{R})-2-(difluoromethyl)cyclopropyl]-7-fluoro-benzimidazol-2-yl]-11,11-difluoro-2-methyl-3,13,19-triazatetracyclo[11.5.2.0^{5,7}.0^{16,20}] icosa-1(19),14,16(20),17-tetraen-4-one] was 31 nM; that for `C[C@H]1NC(=O)[C@@H]2C[C@H]2CCCC(F)(F)Cn2c(-c3nc4cc(C(=O)N5C[C@H](N)[C@@H]6CC[C@H]5C6)c(F)cc4n3C3CC3)cc3ccc1nc32` [Example 455, (2~{R},5~{R},7~{R})-14-[5-[(1~{S},4~{R},5~{R})-4-amino-2-azabicyclo[3.2.1]octane-2-carbonyl]-1-cyclopropyl-6-fluoro-benzimidazol-2-yl]-11,11-difluoro-2-methyl-3,13,19-triazatetracyclo[11.5.2.0^{5,7}.0^{16,20}] icosa-1(19),14,16(20),17-tetraen-4-one] was 36 nM.
The value for `C[C@H]1NC(=O)c2ccc(Cl)nc2CCCCCn2c(-c3nc4cc(C(=O)N5C[C@H](N)[C@@H]6CC[C@H]5C6)c(F)c(F)c4n3C3CC3)cc3ccc1nc32` [Example 456, (2~{R})-17-[5-[(1~{S},4~{R},5~{R})-4-amino-2-azabicyclo[3.2.1]octane-2-carbonyl]-1-cyclopropyl-6,7-difluoro-benzimidazol-2-yl]-8-chloro-2-methyl-3,9,16,22-tetrazatetracyclo[14.5.2.0^{5,10}.0^{19,23}] tricosa-1(22),5(10),6,8,17,19(23),20-heptaen-4-one] was 57 nM.
Under `C[C@H]1NC(=O)c2c(ncc3ccccc23)CCCCCn2c(-c3nc4cc(C(=O)N5C[C@H](N)[C@@H]6CC[C@H]5C6)cc(F)c4n3C3CC3)cc3ccc1nc32` [Example 457, (2~{R})-21-[5-[(1~{S),4~{R},5~{R})-4-amino-2-azabicyclo[3.2.1]octane-2-carbonyl]-1-cyclopropyl-7-fluoro-benzimidazol-2-yl]-2-methyl-3,13,20,26-tetrazapentacyclo[18.5.2.0^{5,14}.0^ {6,11}.0^{23,27}]heptacosa-1(26),5(14),6(11),7,9,12,21,23(27),24-nonaen-4-one] stands 38 nM; under `C[C@H]1NC(=O)[C@@H]2C[C@H]2CCCCCn2c(-c3nc4cc(C(=O)N5C[C@H](N)[C@@H]6CC[C@H]5C6)cnc4n3C3CC3)cc3ccc1nc32` [Example 458, (2~{R},5~{R},7~{R})-14-[6-[(1~{S),4~{R},5~{R})-4-amino-2-azabicyclo[3.2.1]octane-2-carbonyl]-3-cyclopropyl-imidazo[4,5-b]pyridin-2-yl]-2-methyl-3,13,19-triazatetracyclo[11.5.2.0^{5,7}.0^{16,20}] icosa-1(19),14,16(20),17-tetraen-4-one], 23 nM; under `COc1cc(C(=O)N2C[C@H](N)[C@@H]3CC[C@H]2C3)cc2nc(-c3cc4ccc5nc4n3CC(F)(F)CCCC[C@](C)(C(F)(F)F)C(=O)N[C@@H]5C)n(C)c12` [Example 459, (8~{S},11~{R})-17-[5-[(1~{S},4~{R},5~{R})-4-amino-2-azabicyclo[3.2.1]octane-2-carbonyl]-7-methoxy-1-methyl-benzimidazol-2-yl]-3,3-difluoro-8,11-dimethyl-8-(trifluoromethyl)-1,10,19-triazatricyclo[10.5.2.0^{15,18}]nonadeca-12(19),13,15(18),16-tetraen-9-one], 130 nM.
Take `COc1cc(C(=O)N2C[C@H](N)[C@@H]3CC[C@H]2C3)cc2nc(-c3cc4ccc5nc4n3CC(F)(F)CCCOC(C)(C)C(=O)N[C@@H]5C)n(C)c12` [Example 460, (11~{R})-17-[5-[(1~{S},4~{R},5~{R})-4-amino-2-azabicyclo[3.2.1]octane-2-carbonyl]-7-methoxy-1-methyl-benzimidazol-2-yl]-3,3-difluoro-8,8,11-trimethyl-7-oxa-1,10,19-triazatricyclo[10.5.2.0^{15,18}]nonadeca-12(19),13,15(18),16-tetraen-9-one]: the IC50 is 71 nM.
The value for `COc1cc(C(=O)N2C[C@H](N)[C@@H]3CC[C@H]2C3)cc2nc(-c3cc4ccc5nc4n3CCCCCc3cc4ccccc4nc3C(=O)N[C@@H]5C)n(C)c12` [Example 461, (2~{R})-21-[5-[(1~{S},4~{R},5~{R})-4-amino-2-azabicyclo[3.2.1]octane-2-carbonyl]-7-methoxy-1-methyl-benzimidazol-2-yl]-2-methyl-3,6,20,26-tetrazapentacyclo[18.5.2.0^ {5,14}.0^{7,12}.0^ {23,27}]heptacosa-1(26),5(14),6,8,10,12,21,23(27),24-nonaen-4-one] was 51 nM.

For the origin of these results see patent publication US11976083B2, “Inhibitors of peptidylarginine deiminases” (Gilead Sciences, Inc., priority 2020, dated 2024).
